Measurements from PubChem BioAssay AID743186 (Broad Institute, 2013).
The source made the active and inactive calls. The rule behind the calls is not given here.

Test system: not listed separately
Assay: Confirmatory dose response, tuberculosis growth inhibitors, OD600 plate reader (AID 743186)
Conditions: Mycobacterium tuberculosis growth, OD600; at 6 µM (top of the series)

SMILES	growth change, negative = inhibition
CCOC(=O)COc1ccc2c(c1)C(=O)CC1(CCCCC1)O2	-49.6% (inactive)
CCc1ccc(OCCCC(=O)NCc2ccco2)cc1	2.01% (inactive)
O=C(OCc1ccc(Cl)c(Cl)c1)c1ccccn1	-2.92% (inactive)
CC(=O)c1ccc(NC(=O)c2cc(CC(C)C)on2)cc1	-8.04% (inactive)
O=C(NC1CC2CCC1C2)C1COc2ccccc2O1 (stereo unspecified)	-8.57% (inactive)
CCOC(=O)c1sc(NC(=O)CCN2CCOCC2)c(C(=O)OCC)c1C	2.46% (inactive)
CCOC(=O)COc1ccc2c(=O)cc(-c3ccccc3)oc2c1	-72.2% (inactive)
CCCOC(=O)c1ccc(NC(=O)c2ccc(Br)o2)cc1	4.84% (inactive)
CCOC(=O)c1c(C)n(C)c2ccc(OC(C)C(=O)OC)cc12 (stereo unspecified)	-3.72% (inactive)
CCOC(=O)COc1ccc2c(=O)c(-c3ccccc3)coc2c1	-66.9% (inactive)
NC(=O)C1(N2CCCCC2)CCN(C2CC(=O)N(CCc3ccccc3)C2=O)CC1 (stereo unspecified)	12.1% (inactive)
O=C(OCCCCN1C(=O)c2ccccc2C1=O)c1ccc(Br)o1	1.08% (inactive)
Fc1ccc(-c2ccc(CNCc3ccccn3)o2)cc1Cl	-11.2% (inactive)
CCCC(C)C(=O)Nc1ccc(Cl)cn1 (stereo unspecified)	-8.24% (inactive)
NC(=O)COc1ccc2cc(-c3ccc(F)cc3)c(=O)oc2c1	0.842% (inactive)
O=C(CCN1CCC(c2cccs2)=N1)c1cccs1	-5.74% (inactive)
O=C(COc1cccc2ccccc12)Nc1nc2ccccc2[nH]1	3.31% (inactive)
Clc1cccc(-c2ccc(CNCc3ccccn3)o2)c1	-12.5% (inactive)
O=C(COc1c(Br)cc(Br)c2cccnc12)N1CCCCC1	-5.71% (inactive)

Test system: Mycobacterium tuberculosis growth, OD600
Assay: as above
Conditions: not given

SMILES	AC90
Clc1cccc(CNCCNCc2cccc(Cl)c2)c1	> 6 µM (inactive)
Cc1nnc(NC(=O)c2ccc3ccccc3c2)o1	2.96 µM
O=C(Nc1nc2ccccc2[nH]1)c1cccc(Cl)c1	> 6 µM (inactive)
C=CCn1c(NC(=O)c2ccccc2)nc2ccccc21	> 6 µM (inactive)
Brc1c(-c2ccc3c(c2)OCO3)nc2ncccn12	5.4 µM
Cc1cc(C)n2nc(S(=O)(=O)Nc3c(Cl)cccc3Cl)nc2n1	3.89 µM
COC(=O)COc1cccc(NC(=O)c2ccc(Cl)cc2)c1	> 6 µM (inactive)
COC(=O)COc1ccc2c(=O)c(Oc3ccccc3)c(C)oc2c1	> 6 µM (inactive)
Cc1cccc(Cn2ccc(NC(=O)c3ccc4c(c3)OCO4)n2)c1	1.67 µM
NC1CCN(c2c(F)cc3c(=O)c(C(=O)O)cn(C4CC4)c3c2Cl)C1 (stereo unspecified)	0.176 µM
O=C(NCc1cccs1)c1ccc(Br)o1	> 6 µM (inactive)
Cc1cc(NC(=O)C2CCCCC2)n(-c2nc3ccccc3[nH]2)n1	> 6 µM (inactive)
CCCCN(C/C=C/c1ccccc1OC)Cc1ccccc1	> 6 µM (inactive)
CS(=O)(=O)Cc1nc2ccccc2oc1=O	> 6 µM (inactive)
Cc1ccc(C)c(-c2csc(NC(=O)c3cnccn3)n2)c1	> 6 µM (inactive)
c1ccc(Nc2nc(-c3ccccn3)cs2)cc1	> 6 µM (inactive)
Cc1cccc(C)c1N1C(=O)CC(N2CCSCC2)C1=O (stereo unspecified)	> 6 µM (inactive)
